Where two headings read alike, the source gives them in different places.
What was measured:
cyclo-oxygenase = assay: Anti-cyclooxygenase activity; format: cell-based; conditions: for anti-cyclooxygenase (I), potency ratio versus natural product: in vitro, 10^-5 to 10^-7 molar range, natural product = 1.0
Procedure: (§1) The activity inhibiting cyclo-oxygenase was determined in isolated cells. Endothelial cells of bovine aorta were used as a source of COX-1 and macrophage line J774.2 as a source of COX-2. The same conditions described by Mitchell et al. (Proc. Nat. Acad. Sci. 90, 11693, 1993) for growth and the viability test were used.
(§2) In brief, the cells were incubated for 30 minutes with scalar concentrations of the test product and the substrate (arachidonic acid) was then added and incubated for another 15 minutes. Enzyme activity was determined radioimmunologically by measuring the formation of 6-keto-PGF 1 alpha. In the case of cell lines J.774.2, the cells were incubated for 12 hours with endotoxin to promote COX-2 formation.
(§3) Example of the anti-cyclooxygenase (I), platelet anti-aggregating (II) and vasodilative (III) properties of the test compounds tested in vitro at concentrations in the molar range from 10^-5 to 10^-7 of the product in water/alcohol with the addition of small amounts of DMSO (dimethylsulphoxide). The activities are expressed as the potency ratio versus the natural product used as a unit standard, as stated in Table

COX-2 = target: T1, COX-2 (Mus musculus, UniProt Q05769); assay: COX-2 inhibition in isolated cells; format: cell-based
T1 construct: endogenous in cells; host or cells: J774.2 macrophages, 12 h with endotoxin
T1 sequence (Q05769 18-604): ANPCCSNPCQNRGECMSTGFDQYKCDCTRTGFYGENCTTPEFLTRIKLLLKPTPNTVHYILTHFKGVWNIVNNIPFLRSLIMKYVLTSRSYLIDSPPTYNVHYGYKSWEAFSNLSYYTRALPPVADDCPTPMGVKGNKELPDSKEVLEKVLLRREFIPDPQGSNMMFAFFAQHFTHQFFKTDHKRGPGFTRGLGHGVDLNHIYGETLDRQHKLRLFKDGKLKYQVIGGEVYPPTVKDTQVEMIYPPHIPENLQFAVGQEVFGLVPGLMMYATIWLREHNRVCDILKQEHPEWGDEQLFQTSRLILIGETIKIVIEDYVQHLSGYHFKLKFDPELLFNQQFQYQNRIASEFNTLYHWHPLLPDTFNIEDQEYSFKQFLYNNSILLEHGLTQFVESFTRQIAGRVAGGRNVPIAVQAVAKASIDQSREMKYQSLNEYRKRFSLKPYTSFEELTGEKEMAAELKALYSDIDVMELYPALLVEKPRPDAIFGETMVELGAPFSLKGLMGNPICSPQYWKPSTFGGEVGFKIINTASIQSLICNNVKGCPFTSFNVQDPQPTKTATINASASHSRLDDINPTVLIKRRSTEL
Procedure: as §1, §2
(§4) Study of the anti-cyclooxygenase (COX-1/COX-2) properties in isolated cells.
(§5) Response expressed as a % of the controls with relative response variability.

isolated rat aorta = assay: Vasodilative activity, inhibition of contraction induced by epinephrine; conditions: in vitro, 10^-5 to 10^-7 molar range
From the text: as §3

COX-1 = target: T2, COX-1 (Bos taurus, UniProt O62664); assay: COX-1 inhibition in isolated cells; format: cell-based, bovine; conditions: read-out: COX-1 response, % of the controls with response variability
T2 construct: Endothelial cells of bovine aorta were used as a source of COX-1; endogenous in cells; host or cells: bovine aortic endothelial cells
T2 sequence (O62664 25-600): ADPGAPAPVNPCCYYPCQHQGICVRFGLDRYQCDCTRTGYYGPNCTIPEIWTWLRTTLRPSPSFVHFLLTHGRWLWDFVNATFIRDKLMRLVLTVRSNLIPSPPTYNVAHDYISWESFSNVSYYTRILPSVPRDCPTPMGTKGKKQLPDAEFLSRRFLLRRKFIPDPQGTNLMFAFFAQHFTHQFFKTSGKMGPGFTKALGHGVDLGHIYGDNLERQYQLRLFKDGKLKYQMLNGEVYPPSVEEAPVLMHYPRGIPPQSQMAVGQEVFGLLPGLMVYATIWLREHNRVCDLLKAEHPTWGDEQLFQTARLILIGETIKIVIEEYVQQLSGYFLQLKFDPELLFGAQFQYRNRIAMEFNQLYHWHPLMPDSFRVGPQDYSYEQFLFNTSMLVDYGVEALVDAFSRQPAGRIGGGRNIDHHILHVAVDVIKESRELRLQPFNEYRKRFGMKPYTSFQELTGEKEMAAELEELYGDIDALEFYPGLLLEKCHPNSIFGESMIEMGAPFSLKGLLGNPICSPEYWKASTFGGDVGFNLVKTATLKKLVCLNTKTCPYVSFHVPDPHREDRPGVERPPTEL
Procedure: as §1, §2, §4, §5

[1] = system: human platelets stimulated by thrombin; assay: Platelet anti-aggregating activity in vitro; format: cell-based; conditions: 10^-5 to 10^-7 molar range, natural product = 1.0
From the text: as §3

carrageenin-oedema = assay: Anti-inflammatory activity, carrageenin-oedema method; format: in vivo; conditions: rats, oral 3 to 30 mg/Kg in carboxymethylcellulose; natural product = 1.0
Procedure: (§6) Study of the anti-inflammatory (I) and analgesic (II) properties (pharmacodynamics) and gastrointestinal tolerance (III) (toxicity) of the test compounds after oral administration of doses ranging from 3 to 30 mg/Kg in carboxymethylcellulose suspensions and constructing dose-responsecurves. […] Activities are expressed as the potency ratio compared to the natural product used as a unit standard.

Swiss mice = assay: Analgesic activity (Hendershot et al.); format: in vivo; conditions: oral 3 to 30 mg/Kg in carboxymethylcellulose, natural product = 1.0
Procedure: as §6

nitrosynthetase (NOS) = assay: Nitrosynthetase (NOS) activity induced by LPS in rats; format: in vivo, rat; conditions: oral, LPS only = 100
Procedure: The nitrosynthetase inhibition activity induced by lipopolysaccharide (LPS) was determined in rat neutrophils and stomach after administration of one of the test compounds and compared with that obtained after treatment of the suspension vehicle only.
In brief, Wistar rats fasting for 24 hours before treatment were orally administered the test product (10 mg/Kg) and intravenously (caudal vein) administered LPS (5 mg/Kg).
Four hours later the animals were sacrificed and the blood--for neutrophils isolation--and the stomach taken.
Enzyme activity was determined in accordance with the method described by Assreuy et al. (Br. J. Pharmacol. 108, 833, 1993).
Study of the inhibitory properties of the nitrosynthetase (NOS) activity induced by liposaccharide (LPS) in rats using oral doses ranging from 5 to 20 mg/Kg suspended in a carboxymethylcellulose base.

gastropathy = assay: Gastric tolerance, severity of induced gastropathy; conditions: rats, oral 3 to 30 mg/Kg in carboxymethylcellulose; natural product = 1.0
Procedure: Gastric tolerance was measured by oral administration to rats assessing the severity of the gastropathy induced in accordance with the criteria described by Wallace et al. (Am. J. Physiol. 259, G642, 1990).
Study of the anti-inflammatory (I) and analgesic (II) properties (pharmacodynamics) and gastrointestinal tolerance (III) (toxicity) of the test compounds after oral administration of doses ranging from 3 to 30 mg/Kg in carboxymethylcellulose suspensions and constructing dose-responsecurves.
Activities are expressed as the potency ratio compared to the natural product used as a unit standard. The nitroderivative is that of the shown examples, the natural reference compound is that shown as a reference.

gastric mucous membrane = assay: Gastric irritation of Tween 80 / dimethylsulphoxide suspensions; format: in vivo; conditions: suspension with Tween 80 and dimethylsulphoxide (0.1% and 1% for nitroxybutylflurbiprofen; lower amounts for NO-flurbiprofen derivative)
[2] = J774.2, read-out: COX-2 response, % of the controls with response variability

O=C(Cc1ccccc1Nc1c(Cl)cccc1Cl)OCCOCCO[N+](=O)[O-] [Example 1b, 2-{N-[2,6-(dichloro)phenyl]amino}phenylacetate of 2-[2-(nitroxy)ethoxy]ethyl]
direct inhibition of cyclo-oxygenase COX-1 and COX-2 (cyclo-oxygenase; Table 4 data): capable of directly inhibiting cyclo-oxygenase COX-1 and COX-2
anti-cyclooxygenase (I), potency ratio versus natural product (cyclo-oxygenase): 1.8
remaining activity at 100 µg/mL (COX-2; 0.1 mg/ml, macrophage line J774.2 with endotoxin, read-out: COX-2 response, % of the controls with response variability): 45 ± 3%
remaining activity at 1000 µg/mL (COX-2; 1.0 mg/ml, macrophage line J774.2 with endotoxin, read-out: COX-2 response, % of the controls with response variability): 22 ± 4%
vasodilative (III), % of inhibitory action of the vasospasm induced by epinephrine (isolated rat aorta): 50%
remaining activity at 100 µg/mL (COX-1; 0.1 mg/ml, endothelial cells of bovine aorta): 49 ± 6%
remaining activity at 1000 µg/mL (COX-1; 1.0 mg/ml, endothelial cells of bovine aorta): 29 ± 4%
platelet anti-aggregating (II), potency ratio versus natural product [1]: 1.8
anti-inflammatory properties (I), potency ratio versus natural reference product (carrageenin-oedema): 1.3
analgesic properties (II), potency ratio versus natural reference product (Swiss mice): 0.9
NOS, neutrophils; inhibition relative to the group treated with LPS only (nitrosynthetase (NOS)): 52
NOS, stomach; inhibition relative to the group treated with LPS only (nitrosynthetase (NOS)): 40
gastrointestinal tolerance (III) (toxicity), potency ratio versus natural reference product (gastropathy): 0.3

CC(C(=O)Oc1cccc(CO[N+](=O)[O-])c1)c1cccc(C(=O)c2ccccc2)c1 (centres unmarked) [Example 1c, 2-(3-benzoyl)phenylpropionate of 3-(nitroxymethyl)phenyl]
anti-cyclooxygenase (I), potency ratio versus natural product (cyclo-oxygenase): 1.2
vasodilative (III), % of inhibitory action of the vasospasm induced by epinephrine (isolated rat aorta): 50%
platelet anti-aggregating (II), potency ratio versus natural product [1]: 1.8
anti-inflammatory properties (I), potency ratio versus natural reference product (carrageenin-oedema): 1.0
analgesic properties (II), potency ratio versus natural reference product (Swiss mice): 1.2
NOS, neutrophils; inhibition relative to the group treated with LPS only (nitrosynthetase (NOS)): 30
NOS, stomach; inhibition relative to the group treated with LPS only (nitrosynthetase (NOS)): 40
gastrointestinal tolerance (III) (toxicity), potency ratio versus natural reference product (gastropathy): 0.1

CC(C(=O)OCCCCO[N+](=O)[O-])c1ccc(-c2ccccc2)c(F)c1 (centres unmarked) [FLURBIPROFEN NITROXYBUTYLESTER]
remaining activity at 100 µg/mL (COX-2; [2]): 46 ± 23%
remaining activity at 1000 µg/mL (COX-2; [2]): 22 ± 14%
remaining activity at 100 µg/mL (COX-1): 48 ± 18%
remaining activity at 1000 µg/mL (COX-1): 29 ± 13%
irritant effect on gastric mucous membrane (gastric mucous membrane): irritant to the gastric mucous membrane

From patent US5861426A, “Nitro compounds of the formula A-Xi -NO2 and their compositions having anti-inflammatory, analgesic and anti-thrombotic activities” (Nicox S.A., priority 1994, dated 1999)
